The data set can be described thus: Metabolic stability, liver microsome incubation. It counts as in vitro ADME. Particulars: 100 μM. The protocol:
Rat liver microsomes (RLMS) and human liver microsomes (HLMs) were purchased from RILD and BioIVT, respectively.The metabolic stability of 100 μm Zldi-8 and NY-2 in rat and human liver microsomes was investigated. Zldi-8/NY-2(100 ΜM)10 μl, mgcl210 ΜL, RLMs/HLMs 62.5 μl, PBS (ph 7.4)117.5 μl, NADPH 50 ΜL were added to the metabolic incubation system in ice bath, respectively.After adding in sequence, the incubation systems were pre-incubated for 3 min in a 37 ° C incubator, and then NADPH was added to start the reaction, and the incubation systems were removed at 0 min, 5 min, 10 min, 20 min, 30 min, 60 min, 90 min, 50 ΜL incubation solution was taken out respectively, and the reaction was stopped by rapidly adding equal volume of ice acetonitrile solution containing propranolol hydrochloride (internal standard) , vortex for 3 min, centrifugation at 4 ° C, 9500 rpm for 10 min, the content of the supernatant was determined by HPLC.The experiment was repeated three times in parallel.
(Microsomes from liver hold many membrane-bound enzymes, among them those of drug oxidation.)

Turning to `Cc1c(C=C2C(=O)NC(=S)NC2=O)c2ccccc2n1CCOc1ccc(F)cc1` [NY-2], the “residual level (metabolic stability)” value is reported as “greater than that of ZLDI-8” (human liver microsomes) and “greater than that of ZLDI-8” (rat liver microsomes).

Values taken from publication PMC9884808, “Pharmacokinetics, tissue distribution, and antitumor activity of a novel compound, NY-2, in non-small cell lung cancer” (Frontiers in Pharmacology, 2023).
